Tests used:
[1] = system: senescent cells; test: Cell viability of BPTES-treated cells in weakly basic medium (trypan blue count); format: cell-based, human; conditions: BPTES 10 μM
Description: Next, the pH of the medium of BPTES-treated cells was made weakly basic (pH 8.0 or pH 8.5), and the cell viability was examined.
(§1) Senescent cells and normal cells were separately seeded in 6-cm culture dishes such that approximately 10,000 cells were in each dish. […] Thereafter, the cells were stained with trypan blue every 24 hours, and the number of viable cells was counted using a hemocytometer.

[2] = system: senescent cells; test: Effect of mPTP inhibitors on cell death of BPTES-treated cells (trypan blue count); format: cell-based, human; conditions: BPTES 10 μM alone
Description: The previous reports have shown that lowering intracellular pH causes apoptosis-independent cell death through the opening of mitochondrial permeability transition pore (mPTP) by the BNIP3 protein. Therefore, the effects of mPTP inhibitors (DUB and CsA) on BPTES-treated cells were examined.
as §1

[3] = system: p16 mRNA (marker of senescent cells); test: Removal of senescent cells in vivo: p16 mRNA by qPCR in organs of aged mice; conditions: 96-week-old C57BL6/N male mice, 12.5 mg/kg body weight once a week for 1 month
Description: Then, each mouse was dissected, RNA was extracted by homogenizing the heart, brain, kidney, and liver, and total RNA was prepared using the RNeasy mini kit (Qiagen) according to the attached protocol and reverse transcribed into cDNA using the ReverTra Ace qPCR RT kit (Takara). Using the obtained cDNA, the expression level of p16 mRNA, which is a marker of senescent cells, was analyzed by qPCR using Power SYBR Green PCR Master Mix (Applied Biosystems). The p16 mRNA expression level was corrected by the value of GAPDH. Primers for detecting the p16 mRNA expression level are shown below.

[4] = system: S6K protein T389 phosphorylation (indicator of activation of mTOR); test: Western blotting of S6K protein T389 phosphorylation in senescent cells; format: cell-based, human
Description: Further, the molecular mechanism of SASP inhibition was analyzed. […] Cell extracts were prepared from the cultured cells using Laemmli-buffer (2% SDS, 10% glycerol, 5% 2-mercaptoethanol, 0.002% bromophenol blue, and 62.5 mM Tris HCl at pH 6.8). Cell extracts (20 to 50 μg) were separated by SDS-PAGE, and after transcription to PVDF membrane, Western blotting was performed using an antibody to the T389 phosphorylation site of the […] protein (CST), an antibody to the S6K protein (CST), and an antibody to the p16 protein (abcam), and detection was performed by ECL.

[5] = system: IL-6 and IL-8 mRNA expression; test: qPCR of SASP factors IL-6 and IL-8 mRNA in senescent cells; format: cell-based, human; conditions: BPTES 2.5 μM, 24 hours
Description: After reverse transcription from total RNA into cDNA using the SuperScript II cDNA synthesis kit (Invitrogen) was performed, qPCR analysis was performed using the Power SYBR Green PCR Master Mix (Applied Biosystems) so as to measure the IL-6 and IL-8 expression levels. Primers for detecting the IL-6 and IL-8 mRNA expression levels are shown below.

[6] = system: mice fed a high fat diet; test: Obesity-associated senescent cell accumulation, macrophage infiltration and hypertrophy of white adipose tissue (high-fat diet mice); format: in vivo; conditions: high-fat diet 8 weeks, BPTES 0.25 mg/20 g/200 μl i.p. 3 times a week in latter 4 weeks
Description: Eight-week-old male mice (C57BL/6N) were maintained on a high-fat diet (HFD32, CLEA Japan) or a normal diet for 8 weeks. […] Then, white adipose tissue was collected from mice, and the accumulation of senescent cells was examined by SA-β-gal staining, and macrophage infiltration was examined by immunostaining with the anti-F4/80 antibody. In situ staining with SA-β-gal and the determination of the abundance ratio of SA-β-gal positive cells were carried out as described in 2-5-2. The degree of macrophage infiltration was determined as described in 2-5-1. The adipocyte size was measured with a BZ-X analyzer (Keyence).

[7] = system: senescent cells (senescence-induced normal human fibroblasts HCA2); test: Viable cell count (trypan blue) of senescent cells treated with glutaminase inhibitor; format: cell-based
Description: RO3306 (SIGMA-ALDRICH) (final concentration: 9 μM) was added to normal human fibroblasts (HCA2), followed by culture at 37° C. and 5% CO2 for 16 hours. Next, culture was performed at 37° C. and 5% CO2 for 8 hours in a culture medium containing RO3306 (final concentration: 9 μM) and Nutlin-3a (SIGMA-ALDRICH) (final concentration: 10 μM), and then culture was performed at 37° C. and 5% CO2 for 48 hours in a culture medium containing Nutlin-3a (final concentration: 10 μM). Culture was performed at 37° C. and 5% CO2 for 9 days while replacing the medium with a medium containing BI2536 (SIGMA-ALDRICH) (final concentration: 100 nM) every 3 days. Thereafter, senescence induction was carried out by performing culture at 37° C. and 5% CO2 for 9 days while replacing the medium with a normal medium (FIG. 1A).
(§2) Senescent cells and normal cells were seeded in 6-cm culture dishes such that approximately 10,000 cells were in each dish.

[8] = system: mice on choline-deficient L-amino acid-defined high-fat diet; test: Liver dysfunction associated with non-alcoholic steatohepatitis (choline-deficient L-amino acid-defined high-fat diet mice); format: in vivo; conditions: NASH diet 8 weeks, BPTES 0.25 mg/20 g/200 μl i.p. 3 times a week in latter 4 weeks
Description: Eight-week-old male mice (C57BL/6N) were maintained on a choline-deficient L-amino acid-defined high-fat diet (A06071302, Research Diets Inc.) for 8 weeks. […] The serum AST level and the hydroxyproline (OH-Pro) level in the liver were measured by the AST assay kit (Abcam) and the Hydroxyproline assay kit (Abcam), respectively. In addition, the expression levels of p16, KGA, and IL-6 were measured by qPCR. Primers for qPCR are shown below.

[9] = system: ammonia production in senescent cells; test: Intracellular ammonia quantification (ammonia assay kit); format: cell-based, human; conditions: BPTES final concentration 10 μM, 24 hours
Source text: Senescent cells and normal cells were separately seeded in 10-cm culture dishes such that approximately 50,000 cells were in each dish. […] Thereafter, the amount of ammonia in cells was quantified using the ammonia assay kit (abcam).

[10] = system: intracellular pH in senescent cells; test: Intracellular pH measurement; format: cell-based, human; design: dose or concentration left out as unconfirmed; conditions: BPTES final concentration, 24 hours; normal level about 7.4
Description: Next, senescent cells and normal cells were separately seeded in 6-cm well plates such that approximately 50,000 cells were in each plate. […] The medium was removed, culture was performed at 37° C. and 5% CO2 for 10 minutes in a HEPES solution containing […] (DOJINDO LABORATORIES) at a final concentration of 3 μM, and washing with the HEPES solution was performed three times. Thereafter, luminescence was measured with a plate reader. In order to determine the pH value, the amount of luminescence of cells treated with the HEPES solution (pH 6.0 to 7.6) containing nigericin at a final concentration of 10 μM was corrected.

[11] = system: normal cells (normal human fibroblasts HCA2); test: Viable cell count (trypan blue) of normal cells treated with glutaminase inhibitor; format: cell-based; conditions: BPTES final concentration 10 μM, 3 days
Description: as §2

[12] = system: ApoE knockout mice on atherogenetic diet; test: Obesity-associated atherosclerosis in ApoE knockout mice (Sudan IV staining of aorta); format: in vivo; conditions: atherogenetic diet 8 weeks, BPTES 0.25 mg/20 g/200 μl i.p. 3 times a week in latter 4 weeks
Description: C57BL/6J ApoE knockout mice (8 weeks old) were maintained on an atherogenetic diet (D12108C, Research Diets Inc.) for 8 weeks. […] In addition, C57BL/6J wild-type male mice (8 weeks old) were maintained on a normal diet as controls. All aortas except the arterial arch were cleanly depleted of adventitial fat, incised, and fixed flat in 4% […] at 25° C. for 12 hours. The aorta was washed with 70% ethanol for 5 minutes, incubated in 0.5% Sudan IV (in 1:1 acetone/ethanol) for 5 minutes, and then washed 3 times with 80% ethanol for 1 minute. Plaque formed in the aorta was stained with Sudan IV, the Sudan IV-positive area was quantified with ImageJ, and the plaque number was counted under a microscope.

[13] = system: aged mice (76 weeks old); test: Age-associated dysfunction of kidney, lung, heart and liver in aged mice; format: in vivo; conditions: BPTES 0.25 mg/20 g/200 μl intraperitoneally, 1 month
Source text: It is examined whether removal of senescent cells by inhibition of glutaminolysis could improve aging or age-associated organ dysfunction.
The kidney, lung, liver, and heart were embedded with an OCT compound, thereby preparing frozen sections. Thereafter, tissue staining with hematoxylin-eosin (H&E), tissue staining with a Masson trichrome (MT) reagent, a periodic acid Schiff (PAS) reagent (Fisher Scientific), or immunostaining with DAB (3,3′-diaminobenzidine tetrahydrochloride) (DAKO) using an anti-F4-80 antibody (CST) was performed. After staining, tissue sections were observed under a microscope.
Kidney glomerulosclerosis was evaluated for 40 glomeruli per individual based on PAS-positive intensity and range. In addition, the serum urea concentration and creatinine concentration were measured using the Urea Assay kit (Abcam) and the Creatinine Assay kit (Abcam), respectively.
The degree of lung fibrosis was assessed by MT staining. […] In addition, when the MT-stained area was quantified by a BZ-X analyzer (Keyence), the degree of fibrosis was improved in the lungs of BPTES-treated mice as compared with the lungs of control mice (FIG. 7B, top).
For the heart, MT staining of heart tissue sections was performed so as to assess the degree of fibrosis (FIG. 8A). In addition, the heart weight was weighed, and the cardiomyocyte size was measured with a BZ-X analyzer (Keyence). As for the heart, the degree of fibrosis in the heart of BPTES-treated mice was improved as compared with the control mice (FIG. 8B).
Liver tissue sections were immunostained with an anti-F4/80 antibody (FIG. 9A) so as to assess the degree of macrophage infiltration. The degree of macrophage infiltration in the liver of BPTES-treated mice was improved compared to control mice (FIG. 9B).

## O=C(Cc1ccccc1)Nc1nnc(CCSCCc2nnc(NC(=O)Cc3ccccc3)s2)s1 [BPTES, bis-2-(5-phenylacetamido-1,3,4-thiadiazol-2-yl)ethyl sulfide]
[1]; medium not weakly basic (pH 7.4)
  cell death seen with BPTES treatment: at least 90%
[1]; medium pH 8.0 or pH 8.5
  cell death with BPTES under weakly basic pH conditions: about 30%
[2]
  cell death seen with BPTES treatment: at least 90%
[3]
  p16 mRNA expression in the brain: decreased
  p16 mRNA expression in the heart: decreased
  p16 mRNA expression in the kidney: decreased
  p16 mRNA expression in the liver: decreased
[4]; BPTES 2.5 μM, 24 hours
  phosphorylation of the S6K protein T389: inhibits phosphorylation
[5]
  IL-6 mRNA expression: inhibits mRNA expression
  IL-8 mRNA expression: inhibits mRNA expression
[6]
  accumulation of senescent cells associated with obesity (SA-β-gal, white adipose tissue): reduced
  degree of macrophage infiltration in white adipose tissue (anti-F4/80): reduced
  size of adipocytes associated with obesity: reduced
  weight of white adipose tissue: reduced
[7]; BPTES final concentration 2.5 μM
  impact on the survival of senescent cells: little impact
[8]
  IL-6 expression level in the liver (qPCR): lowers
  KGA expression level in the liver (qPCR): lowers
  hydroxyproline (OH-Pro) level in the liver: lowers
  p16 expression level in the liver (qPCR): lowers
  serum AST level: lowers
[9]
  ammonia production in senescent cells: suppresses the increased ammonia production in senescent cells to the same level as in normal cells
[10]
  intracellular pH in senescent cells: about 6.0
[11]
  number of cells (viable cells): increase in the number of cells
[12]
  aortic plaque area (Sudan IV-positive area): reduces
  aortic plaque number: reduces
[13]
  cardiomyocyte size: smaller than that of control mice
  heart weight: lighter than that of young mice
  serum creatinine concentration: reduced
  serum urea concentration: reduced
[13]; vs control mice
  degree of fibrosis in the heart (MT staining): improved
  degree of glomerulosclerosis (PAS staining): improved
  degree of lung fibrosis (MT-stained area): improved
  degree of macrophage infiltration in the liver (anti-F4/80 immunostaining): improved

## COC(=O)CCC(=O)C(=O)OC [DM-KG]
[4]; BPTES plus DM-KG
  rescue of the BPTES inhibitory effect on S6K T389 phosphorylation: rescued
[7]; BPTES 10 μM plus transmembrane α-ketoglutaric acid
  rescue of senescent cell-selective cell death caused by BPTES: could hardly rescue

Reference: patent US20260049282A1, “METHOD FOR REMOVING SENESCENT CELL, AND METHOD FOR PREPARING SENESCENT CELL” (The University of Tokyo, priority 2018, published 2026)
